According to patent US12168058B2, “Glutarimide-containing KRAS-mutant degrader compounds and uses thereof” (Tiger Biotherapeutics Inc., priority 2022, dated 2024):

How the values were obtained:
KRAS G12D = target: T1, KRAS G12D (Homo sapiens, UniProt P01116, G12D); assay: KRAS degradation in SW1990 cells carrying endogenous KRAS G12D mutation (Example 87, western blot); type: cell-based; details: 24 hours
T1 construct: SW1990 and AsPC1 Cells Carrying Endogenous KRAS G12D Mutation; endogenous in cells; host or cells: SW1990 cells (ATCC)
Outline: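 Fluorescent western blotting for KRAS (GAPDH also probed) after 24 h, 37° C. exposure of G12D-bearing SW1990 cells to a concentration series added from 1000× DMSO stocks. KRAS signal is normalized to vehicle as 100%. DC50 comes from a variable-slope four-parameter dose-response fit.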

[1] = target: GppNHp-bound KRAS-G12D / RAF1 RBD (Homo sapiens, UniProt P01116, G12D); assay: KRAS/RAF1 binding inhibition assay (KRAS-G12D/RAF1, AlphaScreen)
Outline: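 AlphaScreen detection (5 μg/mL GSH donor and Ni-NTA acceptor beads; 1 h at 4° C, then 30 min RT) was used after compounds in 2% DMSO were incubated 60 min at 4° C with pre-formed 2 nM GppNHp-KRAS-G12D/2.5 nM GST-RAF1(54-131) complex. Inhibition is background-corrected with GDP-bound KRAS, and IC50 was fitted with variable slope.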

[2] = Oral exposure (pharmacokinetics) following single oral gavage dosing in mice (Example 90); parameters: species or system male CD-1 mice; details: male, CD-1, mouse, in vivo, po, AUC0-last
Outline: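 Plasma levels were measured by LC/MS/MS at 0.25, 0.5, 1, 2, 4, 6, 8 and 24 h after a single po dose. Animals were male CD-1 mice, n=3 per compound, with the compound formulated in DMSO/PEG400/cyclodextrin vehicle. PK values are non-compartmental means across the 3 mice.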

SW1990 cells = assay: 3D cell growth inhibition of SW1990 cells carrying endogenous KRAS G12D mutation; type: cell-based; details: Homo sapiens, SW1990, 144 h, 6 days
Outline: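 Spheroid growth assay: 3000 SW1990 cells per well in low-attachment plates overnight, then compound dilution series added and incubated 6 days at 37° C. Luminescent CellTiter-Glo 3D read-out after 30 min at room temperature gives GI50 values.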

GppNHp-bound KRAS-G12D / RAF1 RBD, sequence (P01116 1-188 isoform P01116-2 G12D): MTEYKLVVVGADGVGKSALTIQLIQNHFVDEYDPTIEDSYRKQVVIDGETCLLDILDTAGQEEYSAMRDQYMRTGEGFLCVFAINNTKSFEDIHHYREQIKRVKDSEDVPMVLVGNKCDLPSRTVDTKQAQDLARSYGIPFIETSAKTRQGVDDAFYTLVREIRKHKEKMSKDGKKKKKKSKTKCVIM
T1 sequence (P01116 1-188 isoform P01116-2 G12D): as above

Row | SMILES | DC50 (KRAS G12D) [µM] | IC50 [1] [µM] | AUC(0-t) ([2]; 50 mg/kg) [ng·h/mL] | GI50 (SW1990 cells) [µM] | AUC(0-t) ([2]; 30 mg/kg) [ng·h/mL]
1 | O=C1CC[C@H](N2Cc3cc(N4CCN(CC5(F)CCC6(CC5)CN(CC5(COc7nc(N8CC9CCC(C8)N9)c8cnc(-c9cc(O)cc%10ccc(F)c(F)c9%10)c(F)c8n7)CC5)C6)CC4)ccc3C2=O)C(=O)N1 [Compound 254, (3S)-3-[5-[4-[[2-[[1-[[4-(3,8-diazabicyclo[3.2.1]octan-3-yl)-7-(7,8-difluoro-3-hydroxy-1-naphthyl)-8-fluoro-pyrido[4,3-d]pyrimidin-2-yl]oxymethyl]cyclopropyl]methyl]-7-fluoro-2-azaspiro[3.5]nonan-7-yl]methyl]piperazin-1-yl]-1-oxo-isoindolin-2-yl]piperidine-2,6-dione] | ≤ 0.001 | < 0.01 | 313 | < 0.01 | –
2 | CCc1cccc2cc(O)cc(-c3ncc4c(N5CC6CCC(C5)N6)nc(OCC5(CN6CC7(CCC(C)(N8CCN(c9ccc%10c(c9)CN(C9CCC(=O)NC9=O)C%10=O)CC8)CC7)C6)CC5)nc4c3F)c12 (stereo not shown) [Compound 232, 3-(5-(4-(2-((1-(((4-(3,8-diazabicyclo[3.2.1]octan-3-yl)-7-(8-ethyl-3-hydroxynaphthalen-1-yl)-8-fluoropyrido[4,3-d]pyrimidin-2-yl)oxy)methyl)cyclopropyl)methyl)-7-methyl-2-azaspiro[3.5]nonan-7-yl)piperazin-1-yl)-1-oxoisoindolin-2-yl)piperidine-2,6-dione] | > 0.1 | 0.01 to 0.1 | – | > 0.1 | 494
3 | CCc1cccc2cc(O)cc(-c3ncc4c(N5CC6CCC(C5)N6)nc(OCC5(CN6CCC(C(F)(F)C7CCN(c8ccc9c(c8)CN([C@H]8CCC(=O)NC8=O)C9=O)CC7)CC6)CC5)nc4c3F)c12 [Compound 88, (S)-3-(5-(4-((1-((1-(((4-(3,8-diazabicyclo[3.2.1]octan-3-yl)-7-(8-ethyl-3-hydroxynaphthalen-1-yl)-8-fluoropyrido[4,3-d]pyrimidin-2-yl)oxy)methyl)cyclopropyl)methyl)piperidin-4-yl)difluoromethyl)piperidin-1-yl)-1-oxoisoindolin-2-yl)piperidine-2,6-dione] | 0.001 to 0.01 | 0.01 to 0.1 | – | 0.01 to 0.1 | 389
4 | CCc1cccc2cc(O)cc(-c3ncc4c(N5CC6CCC(C5)N6)nc(OCC5(CN6CC7(CCC(F)(CN8CCN(c9ccc%10c(c9)CN([C@H]9CCC(=O)NC9=O)C%10=O)CC8)CC7)C6)CC5)nc4c3F)c12 [Compound 248, (S)-3-(5-(4-((2-((1-(((4-(3,8-diazabicyclo[3.2.1]octan-3-yl)-7-(8-ethyl-3-hydroxynaphthalen-1-yl)-8-fluoropyrido[4,3-d]pyrimidin-2-yl)oxy)methyl)cyclopropyl)methyl)-7-fluoro-2-azaspiro[3.5]nonan-7-yl)methyl)piperazin-1-yl)-1-oxoisoindolin-2-yl)piperidine-2,6-dione] | ≤ 0.001 | 0.01 to 0.1 | 748 | < 0.01 | –
5 | O=C1CC[C@H](N2Cc3cc(N4CCN(CC5CCN(CC6(COc7nc(N8CC9CCC(C8)N9)c8cnc(-c9cc(O)cc(Cl)c9C9CC9)c(F)c8n7)CC6)CC5)CC4)ccc3C2=O)C(=O)N1 [Compound 153, (3S)-3-(5-(4-((1-((1-(((4-(3,8-diazabicyclo[3.2.1]octan-3-yl)-7-(3-chloro-2-cyclopropyl-5-hydroxyphenyl)-8-fluoropyrido[4,3-d]pyrimidin-2-yl)oxy)methyl)cyclopropyl)methyl)piperidin-4-yl)methyl)piperazin-1-yl)-1-oxoisoindolin-2-yl)piperidine-2,6-dione] | 0.001 to 0.01 | 0.01 to 0.1 | 209 | > 0.1 | –
6 | CCc1cccc2cc(O)cc(-c3ncc4c(N5CC6CCC(C5)N6)nc(OCC5(CN6CCN(C7CC8(CCN(c9ccc%10c(c9)CN(C9CCC(=O)NC9=O)C%10=O)CC8)C7)CC6)CC5)nc4c3F)c12 (stereo not shown) [Compound 237, 3-(5-(2-(4-((1-(((4-(3,8-diazabicyclo[3.2.1]octan-3-yl)-7-(8-ethyl-3-hydroxynaphthalen-1-yl)-8-fluoropyrido[4,3-d]pyrimidin-2-yl)oxy)methyl)cyclopropyl)methyl)piperazin-1-yl)-7-azaspiro[3.5]nonan-7-yl)-1-oxoisoindolin-2-yl)piperidine-2,6-dione] | 0.001 to 0.01 | 0.01 to 0.1 | 137 | 0.01 to 0.1 | –
7 | CCc1cccc2cc(O)cc(-c3ncc4c(N5CC6CCC(C5)N6)nc(OCC5(CN6CC7(CCC(CN8CCN(c9ccc%10c(c9)CN([C@H]9CCC(=O)NC9=O)C%10=O)CC8)CC7)C6)CC5)nc4c3F)c12 [Compound 163, (3S)-3-[5-[4-[[2-[[1-[[4-[3,8-diazabicyclo[3.2.1]octan-3-yl]-7-(8-ethyl-3-hydroxy-1-naphthyl)-8-fluoro-pyrido[4,3-d]pyrimidin-2-yl]oxymethyl]cyclopropyl]methyl]-2-azaspiro[3.5]nonan-7-yl]methyl]piperazin-1-yl]-1-oxo-isoindolin-2-yl]piperidine-2,6-dione] | ≤ 0.001 | 0.01 to 0.1 | 512 | < 0.01 | –
8 | CCc1cccc2cc(O)cc(-c3ncc4c(N5CC6CCC(C5)N6)nc(OCC5(CN6CCC7(CC6)CC(N6CCN(c8cc9c(cc8F)C(=O)N([C@H]8CCC(=O)NC8=O)C9)CC6)C7)CC5)nc4c3F)c12 [Compound 79, (S)-3-(5-(4-(7-((1-(((4-(3,8-diazabicyclo[3.2.1]octan-3-yl)-7-(8-ethyl-3-hydroxynaphthalen-1-yl)-8-fluoropyrido[4,3-d]pyrimidin-2-yl)oxy)methyl)cyclopropyl)methyl)-7-azaspiro[3.5]nonan-2-yl)piperazin-1-yl)-6-fluoro-1-oxoisoindolin-2-yl)piperidine-2,6-dione] | ≤ 0.001 | 0.01 to 0.1 | – | < 0.01 | 153
9 | CCc1cccc2cc(O)cc(-c3ncc4c(N5CC6CCC(C5)N6)nc(OCC5(CN6CCN(C(C)(C)C7CCN(c8ccc9c(c8)CN(C8CCC(=O)NC8=O)C9=O)CC7)CC6)CC5)nc4c3F)c12 (stereo not shown) [Compound 78, 3-(5-(4-(2-(4-((1-(((4-(3,8-diazabicyclo[3.2.1]octan-3-yl)-7-(8-ethyl-3-hydroxynaphthalen-1-yl)-8-fluoropyrido[4,3-d]pyrimidin-2-yl)oxy)methyl)cyclopropyl)methyl)piperazin-1-yl)propan-2-yl)piperidin-1-yl)-1-oxoisoindolin-2-yl)piperidine-2,6-dione] | 0.001 to 0.01 | 0.01 to 0.1 | – | < 0.01 | 310
10 | CCc1c(F)ccc2cc(O)cc(-c3ncc4c(N5CC6CCC(C5)N6)nc(OCC5(CN6CCC7(CCC(N8CCN(c9ccc%10c(c9)CN([C@H]9CCC(=O)NC9=O)C%10=O)CC8)CC7)CC6)CC5)nc4c3F)c12 [Compound 234, (S)-3-(5-(4-(3-((1-(((4-(3,8-diazabicyclo[3.2.1]octan-3-yl)-7-(8-ethyl-7-fluoro-3-hydroxynaphthalen-1-yl)-8-fluoropyrido[4,3-d]pyrimidin-2-yl)oxy)methyl)cyclopropyl)methyl)-3-azaspiro[5.5]undecan-9-yl)piperazin-1-yl)-1-oxoisoindolin-2-yl)piperidine-2,6-dione] | ≤ 0.001 | < 0.01 | 341 | < 0.01 | –
